One experiment has as its system Staphylococcus aureus. As to the kind of experiment: Efficacy in Staph. aureus infection of the mouse. The class given is in vivo, Maus. The following applies: mouse infected with Staphylococcus aureus.
The test system of a further experiment is Bacteroides fragilis. Briefly: MIC, agar dilution test (Multipoint-Inokulator Denley, Isosensitest-Agar). The class given is cell-based. (In general: In agar dilution, organisms are placed on agar that contains the substance at set levels.)
Another experiment deals with Bact. thetaiotaomicron. Described as above. The class given is cell-based. To be noted: Bacteroides thetaiotaomicron, DSM2079, Stamm DSM 2079, read-out: MHK-Werte.
Another experiment relates to Clostridium perfringens. Briefly: microbe, parasite or virus in culture. The class given is cell-based. To be noted: read-out: MHK-Werte.
Where [1] appears, read: DSM2151, Stamm DSM 2151, Isosensitest-Agar, read-out: MHK-Werte.
[2] abbreviates: Stamm ES 25, Isosensitest-Agar, read-out: MHK-Werte.

Values after ≈ are worked out from the molar mass of the structure shown. Read-outs that look alike come from different tables or passages of the source.

On to `N#CCCN1CCC[C@H]2CN(c3c(F)cc4c(=O)c(C(=O)O)cn(C5CC5)c4c3Cl)C[C@H]21` [Beispiel 33, 8-Chlor-7-([S,S]-2-[2-cyanoethyl]-2,8-diazabicyclo[4.3.0]non-8-yl)-1-cyclopropyl-6-fluor-1,4-dihydro-4-oxo-3-chinolincarbonsäure], for which the “Wirksamkeit in der Staph. aureus-Infektion an der Maus” value (from here on “Wirksamkeit”) with Staphylococcus aureus (p.o.) amounted to 10 mg/kg; with Staphylococcus aureus (s.c.) it was 5 mg/kg.

In the case of `CC(=O)CCN1CCC[C@H]2CN(c3c(F)cc4c(=O)c(C(=O)O)cn(C5CC5)c4c3F)C[C@H]21` [Beispiel 27, 1-Cyclopropyl-6,8-difluor-1,4-dihydro-4-oxo-7-([S,S]-2-[3-oxo-1-butyl]-2,8-diazabicyclo[4.3.0]non-8-yl)-3-chinolincarbonsäure], the “Wirksamkeit” value is on record as 10 mg/kg in the experiment with Staphylococcus aureus (p.o.) and 2,5 mg/kg in the experiment on Staphylococcus aureus (s.c.).

Consider `COC(=O)C=C(C(=O)OC)N1CCC[C@H]2CN(c3c(F)cc4c(=O)c(C(=O)O)cn(C5CC5)c4c3Cl)C[C@H]21` [Beispiel 35, 8-Chlor-1-cyclopropyl-7-[2-(1,2-bis-methoxycarbonyl-vinyl)-1S,6S-2,8-diazabicyclo[4.3.0]non-8-yl]-6-fluor-1,4-dihydro-4-oxo-3-chinolincarbonsäure], for which the “Wirksamkeit” value with Staphylococcus aureus (p.o.) and in the experiment with Staphylococcus aureus (s.c.) was 2,5 mg/kg throughout.

On to `O=C(O)c1cn(C2CC2)c2cc(N3CCNCC3)c(F)cc2c1=O` [Ciprofloxacin], for which the MIC with Bacteroides fragilis (DSM2151, read-out: MHK-Werte) is 4 µg/mL (≈ 12.1 µM); with Bacteroides fragilis (read-out: MHK-Werte), 8 µg/mL (≈ 24.1 µM); in the experiment with Bact. thetaiotaomicron, 8 µg/mL (≈ 24.1 µM). Moreover, the “Wirksamkeit” value in the experiment on Staphylococcus aureus (p.o.) and in the experiment on Staphylococcus aureus (s.c.) was 80 mg/kg each time.

Turning to `O=C(O)c1cn(C2CC2)c2c(Cl)c(N3C[C@@H]4CCCN[C@@H]4C3)c(F)cc2c1=O` [A, 8-Chlor-1-cyclopropyl-7-([S,S]-2,8-diazabicyclo[4.3.0]non-8-yl)-6-fluor-1,4-dihydro-4-oxo-3-chinolincarbonsäure], the MIC amounted to 0.25 µg/mL (≈ 0.616 µM) in the experiment with Bacteroides fragilis (setting [1]), 0.25 µg/mL (≈ 0.616 µM) in the experiment on Bacteroides fragilis (setting [2]) and 0.5 µg/mL (≈ 1.23 µM) with Bact. thetaiotaomicron.

Consider `CC(=O)CCN1CCO[C@H]2CN(c3c(F)cc4c(=O)c(C(=O)O)cn(C5CC5)c4c3F)C[C@H]21` (racemic) [Beispiel 31, 1-Cyclopropyl-6,8-difluor-1,4-dihydro-4-oxo-7-(cis-5-[3-oxo-1-butyl]-2-oxa-5,8-diazabicyclo[4.3.0]non-8-yl)-3-chinolincarbonsäure], for which the “Wirksamkeit” value with Staphylococcus aureus (p.o.) and with Staphylococcus aureus (s.c.) was 10 mg/kg throughout.

With `CN1CCC2CN(c3c(F)cc4c(=O)c(C(=O)O)cn(C5CC5)c4c3Cl)CC21` (stereo not shown) [B], the MIC was 0.5 µg/mL (≈ 1.23 µM) with Bacteroides fragilis (setting [1]), 1 µg/mL (≈ 2.46 µM) in the experiment with Bacteroides fragilis (setting [2]), 0.5 µg/mL (≈ 1.23 µM) with Clostridium perfringens and 2 µg/mL (≈ 4.93 µM) with Bact. thetaiotaomicron.

`CC(=O)CCN1CCC[C@H]2CN(c3c(F)cc4c(=O)c(C(=O)O)cn(C5CC5)c4c3Cl)C[C@H]21` [Beispiel 29A, 8-Chlor-1-cyclopropyl-6-fluor-1,4-dihydro-4-oxo-7-([S,S]-2-[3-oxo-1-butyl]-2,8-diazabicyclo[4.3.0]non-8-yl)-3-chinolincarbonsäure]: the “Wirksamkeit” value in the experiment on Staphylococcus aureus (p.o.) and with Staphylococcus aureus (s.c.) was 5 mg/kg each time.

The record behind these values is patent EP0550903A1, “Quinolone- and naphthyridone carboxylic acid derivatives as antibacterial agents” (BAYER AG, priority 1992, dated 1993).
